From patent US20250197865A1, “PHARMACEUTICAL COMPOSITION FOR TREATMENT OR PREVENTION OF FIBROTIC DISEASE” (KYUSHU UNIVERSITY, NATIONAL UNIVERSITY CORPORATION, priority 2022, published 2025)

Key:
[1] = system: TGFβ/SMAD pathway; assay: SIS3 treatment of myofibroblasts from carbon tetrachloride-induced fibrotic liver, mRNA by real-time RT-PCR; type: cell-based, mouse; settings: myofibroblasts from CCl4 liver fibrosis model; SIS3 3 μM; P4HA3, Col1α1, Col1α2, Col3α1; FIG. 26b
Excerpt: (§1) Hepatic stellate cells, which are involved in liver fibrosis, are known to be activated by TGFβ (Fabregat, I. et al., FEBS J., 283:2219-2232 (2016)). Therefore, the effects of TGFβ and its specific inhibitor SIS3, as well as an inhibitor of SMAD3 involved in signal transduction of the TGFβ pathway (si SMAD3), on the mRNA expression of fibrosis-related factors in […] were examined. SIS3 (CAS number: 1009104-85-1) was used under catalog number 15945 from Cayman Chemical Company. SIS3 was added to the culture medium at a final concentration of 3 μM and administered. Si SMAD3 was used as a knockdown reagent for SMAD3. si SMAD3 was used under catalog number 4390771 (Assay ID: s69495) from ThermoFisher Scientific. si SMAD3 was administered to cultured cells in the same manner as in Examples 3, 7, and 13. LX-2, a cultured hepatic stellate cell line, was cultured in DMEM supplemented with 2% FBS.
Bar graph showing the mRNA expression levels of P4HA3, 1α1 collagen (Col1α1), 1α2 collagen (Col1α2), and 3α1 collagen (Col3α1) in myofibroblasts isolated from liver tissue of a mouse model of liver damage and liver fibrosis caused by carbon tetrachloride administration and treated with SIS3, an inhibitor of the TGFβ/SMAD pathway. […] The number of samples for each group was 5.

[2] = system: P4HA3 and 1α1 collagen (Col1α1) mRNA expression in LX-2 cells; assay: TGFβ treatment of cultured LX-2 hepatic stellate cell line, mRNA by real-time RT-PCR; type: cell-based; settings: TGFβ 5 ng/mL for 12 hr, FIG. 26a
Excerpt: as §1
First, the effect of TGFβ on the mRNA expression of P4HA3 or 1α1 collagen (Col1α1) in the cultured LX-2 cells was examined. FIG. 26a is a bar graph showing the mRNA expression level of P4HA3 or 1α1 collagen (Col1α1) in LX-2 cells treated with DMSO or TGFβ (5 ng/ML) for 12 hr. […] The number of samples for each group was 3. […] Error bars indicate standard deviation.

[3] = system: P4HA3 mRNA; assay: siRNA treatment of myofibroblasts from carbon tetrachloride-induced fibrotic liver, P4HA3 mRNA by real-time RT-PCR; type: cell-based, mouse; settings: myofibroblasts from damaged fibrotic liver; FIG. 21-1 B
Method: The mRNA expression levels of P4HA3 etc. in the examples of the present specification were quantified as follows. The concentration of purified RNA was determined using a microspectrophotometer DS-11 (DeNovix), and reverse transcription to cDNA was performed using a High Capacity cDNA Reverse Transcription Kit (Applied Biosystems). Quantification of mRNA was performed according to the protocol of Luna Universal qPCR Master Mix (New England BioLabs), with DNA polymerase activation at 95° C. for 60 seconds, followed by 45 cycles of cDNA denaturation at 95° C. for 15 seconds and extension at 60° C. for 30 seconds. Analysis was performed by the AACt method using GAPDH as an internal standard. Mouse Cyp7al probe was purchased from Applied Biosystems. Primers and probes for mouse α-smooth muscle actin (α-SMA), CD68, 1α1 collagen (Col1α1), 1α2 collagen (Col1α2), 1α3 collagen (Col1α3), 6α1 collagen (Col6α1), 8α1 collagen (Co81α1), GAPDH (glyceraldehyde-3-phosphate dehydrogenase), heat shock protein 47 (Hsp47), prolyl 4-hydroxylase alphal subunit (P4HA1), prolyl 4-hydroxylase alpha2 subunit (P4HA2), and prolyl 4-hydroxylase alpha3 subunit (P4HA3) were purchased from Sigma-Aldrich.
As in Example 3, the effect of suppressing P4HA3 mRNA expression on the mRNA expression of other fibrosis-related factors was examined in cultured myofibroblasts isolated from the liver 4 weeks after the start of carbon tetrachloride administration. The liver was removed from a mouse model of carbon tetrachloride (CCl4)-induced fibrotic livers and divided into small pieces. After that, the liver pieces were washed with washing buffer [25 mM HEPES/[…]/HBSS(-)], and the cell solution containing myofibroblasts was collected by shaking the liver pieces three times for 30 min at 37° C. in . . . digestion buffer [0.1% Collagenase A/15 mM HEPES/HBSS(-)]. After that, blood cell components were removed with Red Blood Cell Lysis Buffer, and the cells were suspended in 10% FBS/1% Penicillin-Streptomycin/DMEM, and then seeded on a culture plate. After 6 hr, the medium was replaced to remove non-adherent cells and debris. After that, the cells were cultured overnight in a CO2 incubator, and non-adherent cells were again removed by washing with PBS, and adherent cells were collected using Accutase. After 20 min of reaction with CD45 antibody labeled with magnetic beads, CD45-positive blood cells were removed by MACS (magnetic cell sorting) using an LS column, and CD45-negative cells were collected as myofibroblasts. After that, the purity of the isolated myofibroblasts was measured using FACS verse, and almost all of the CD45-negative cells after MACS were positive for α-SMA, a myofibroblast marker, and almost no contamination with blood cells was observed. […]

[4] = system: Hsp47 mRNA; assay: siRNA treatment of myofibroblasts from carbon tetrachloride-induced fibrotic liver, Hsp47 mRNA by real-time RT-PCR; type: cell-based, mouse; settings: myofibroblasts from CCl4 fibrotic liver; FIGS. 20A and B
Method: The mRNA expression levels of P4HA3 etc. in the examples of the present specification were quantified as follows. The concentration of purified RNA was determined using a microspectrophotometer DS-11 (DeNovix), and reverse transcription to cDNA was performed using a High Capacity cDNA Reverse Transcription Kit (Applied Biosystems). Quantification of mRNA was performed according to the protocol of Luna Universal qPCR Master Mix (New England BioLabs), with DNA polymerase activation at 95° C. for 60 seconds, followed by 45 cycles of cDNA denaturation at 95° C. for 15 seconds and extension at 60° C. for 30 seconds. Analysis was performed by the AACt method using GAPDH as an internal standard. Mouse Cyp7al probe was purchased from Applied Biosystems. […]
As in Example 3, the effect of suppressing P4HA3 mRNA expression on the mRNA expression of other fibrosis-related factors was examined in cultured myofibroblasts isolated from the liver 4 weeks after the start of carbon tetrachloride administration. […] After that, the purity of the isolated myofibroblasts was measured using FACS verse, and almost all of the CD45-negative cells after MACS were positive for α-SMA, a myofibroblast marker, and almost no contamination with blood cells was observed. […]

For `COc1cc2c(cc1OC)CN(C(=O)/C=C/c1c(-c3ccccc3)n(C)c3ncccc13)CC2` [SIS3], the “mRNA expression of fibrosis-related factors including P4HA3” value [1] was “suppressed”.
In the case of TGFβ, the “mRNA expression of 1α1 collagen (Col1α1)” value [2] is reported as “enhanced” and the “mRNA expression of P4HA3” value [2] is reported as “enhanced”.
“si Hsp47: siRNA for mouse Hsp47, SEQ ID NOs: 12 and 13; ThermoFisher Scientific catalog 4390771, Assay ID s232335 (chain 1 CGGACAGGCCTGTACAACTTT; chain 2 AGTTGTACAGGCCTGTCCGGT; listed as DNA, chemistry not given here) [reference compound]” was tested, and the “P4HA3 mRNA expression” value [3] was “did not suppress P4HA3 mRNA expression at all” and the “effect of suppressing the mRNA expression of each target gene, si Hsp47 compared with si P4HA3” value [4] was “stronger effect”.
